Data on 23 compounds can be found in US20240025922A1, “TETRAHYDROPYRIDO[3,4-d]PYRIMIDINES AS HPK1 INHIBITORS” (Merck Patent GmbH, priority 2022, published 2024).

Assay [1] has as its target full-length human HPK1 (MAP4K1) (Homo sapiens (Human), UniProt Q92918). Description: HPK1 Kinase Assay (Biochemical Assay), ADP-Glo. To be noted: GST-HPK1 3.2 nM, 10 μM ATP, MBP substrate, read-out: HPK1 enzymatic IC50. A digest of the protocol:
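GST-tagged full-length human HPK1 was expressed in Sf21 cells and used at 3.2 nM in 50 mM HEPES pH 7.5, 10 mM MgCl2, 2 mM DTT, 12.5 mM O-glycerophosphate, 0.01% BSA and 0.02% Brij-35. It was preincubated 15 min with 10-point compound dilutions, and the reaction was started with a start mix of 10 μM ATP and 3.235 μM MBP. After 120 min, ADP was measured by ADP-Glo luminescence and IC50 derived.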
Background: ADP-Glo first removes unused ATP, then detects ADP through luciferase.

Assay [2] deals with HPK1 (SLP76 phosphorylation at Ser376 in Jurkat and EL-4 cells) (Homo sapiens, UniProt Q92918). Type of assay: cell-based. To be noted: αCD3/αCD28 Dynabeads stimulated cells, pSLP76 (Ser376) detection; read-out: HPK1 pSLP76 IC50. A digest of the protocol:
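Jurkat (human) and EL-4 (mouse) cells, endogenous HPK1/SLP76, preincubated 60 min with compounds (10-point dilution), then stimulated with αCD3/αCD28 beads at 37 °C: 15 min for Jurkat, 30 min for EL-4. Ser376 pSLP76 in lysates read by AlphaLISA (Jurkat) or HTRF (EL-4); % inhibition and IC50 fitted.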

Structures are written as SMILES. pIC50: −log10 of the molar value.

Chain of full-length human HPK1 (MAP4K1) (Q92918 whole entry): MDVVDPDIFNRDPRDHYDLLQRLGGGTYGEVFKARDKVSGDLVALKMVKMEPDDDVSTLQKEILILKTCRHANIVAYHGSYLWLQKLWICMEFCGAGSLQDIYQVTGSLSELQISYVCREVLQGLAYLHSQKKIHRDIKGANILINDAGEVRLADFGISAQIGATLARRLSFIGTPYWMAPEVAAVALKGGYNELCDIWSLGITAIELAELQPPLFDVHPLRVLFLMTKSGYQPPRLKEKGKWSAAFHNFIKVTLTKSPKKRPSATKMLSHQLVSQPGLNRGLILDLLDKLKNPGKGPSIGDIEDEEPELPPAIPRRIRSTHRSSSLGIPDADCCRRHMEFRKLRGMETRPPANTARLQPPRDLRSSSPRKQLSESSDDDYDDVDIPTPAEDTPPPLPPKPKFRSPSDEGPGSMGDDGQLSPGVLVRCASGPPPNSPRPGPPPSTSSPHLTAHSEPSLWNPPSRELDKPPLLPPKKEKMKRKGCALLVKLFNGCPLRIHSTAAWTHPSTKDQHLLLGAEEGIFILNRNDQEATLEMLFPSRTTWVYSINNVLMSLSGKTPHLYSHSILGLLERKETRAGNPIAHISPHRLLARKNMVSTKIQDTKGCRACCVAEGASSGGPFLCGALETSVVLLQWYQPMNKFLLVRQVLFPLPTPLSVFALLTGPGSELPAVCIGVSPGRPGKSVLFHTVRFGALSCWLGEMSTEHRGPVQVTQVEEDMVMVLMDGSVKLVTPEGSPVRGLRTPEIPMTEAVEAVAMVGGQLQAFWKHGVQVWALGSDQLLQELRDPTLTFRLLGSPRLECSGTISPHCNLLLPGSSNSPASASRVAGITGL
Chain of HPK1 (SLP76 phosphorylation at Ser376 in Jurkat and EL-4 cells) (Q92918 whole entry, looked up): as the sequence (Q92918 whole entry) above

By pIC50 is commonly meant the IC50 on a negative log10 scale, so that one unit is a factor of ten. On to `Cc1c(N2CCc3cnc(Nc4cc5n(n4)CC(=O)N(C)CC5)cc3C2)cnc2c1NCCO2` [Example 68, 6-methyl-2-[(6-{8-methyl-1H,2H,3H-pyrido[2,3-b][1,4]oxazin-7-yl}-5,6,7,8-tetrahydro-2,6-naphthyridin-3-yl)amino]-4H,5H,6H,7H,8H-pyrazolo[1,5-d][1,4]diazepin-7-one], for which the values for the pIC50 in assay [1] and in assay [2] were above 7.00 and above 6.30, respectively.

With `Cc1c(N2CCc3cnc(Nc4ccc(C5(S(C)(=O)=O)CC5)nc4)nc3C2)cnc2c1NCCO2` [Example 18, 6-(1-methanesulfonylcyclopropyl)-N-(7-{8-methyl-1H,2H,3H-pyrido[2,3-b][1,4]oxazin-7-yl}-5H,6H,7H,8H-pyrido[3,4-d]pyrimidin-2-yl)pyridin-3-amine], the pIC50 is above 7.00 in assay [1] and 6.00 to 6.30 in assay [2].

For `Cc1cc(Nc2cc3c(cn2)CCN(c2cnc4c(c2C)NCCO4)C3)ccc1NC(=O)CN(C)C` [Example 33, 2-(dimethylamino)-N-{2-methyl-4-[(6-{8-methyl-1H,2H,3H-pyrido[2,3-b][1,4]oxazin-7-yl}-5,6,7,8-tetrahydro-2,6-naphthyridin-3-yl)amino]phenyl}acetamide], the pIC50 in assay [1] is above 7.00; in assay [2], below 6.00.

With `Cc1c(N2CCc3cnc(Nc4ccc([C@@H]5CCCS5(=O)=O)cc4)cc3C2)cnc2c1NCCO2` (single isomer, unassigned) [Example 170], the pIC50 in assay [1] is above 7.00; in assay [2], above 6.30.

Take `Cc1cc(Nc2ncc3c(n2)CN(c2cnc4c(c2C)NCCO4)CC3)cnc1NCCN1CCOCC1` [Example 36, 3-methyl-N5-(7-{8-methyl-1H,2H,3H-pyrido[2,3-b][1,4]oxazin-7-yl}-5H,6H,7H,8H-pyrido[3,4-d]pyrimidin-2-yl)-N2-[2-(morpholin-4-yl)ethyl]pyridine-2,5-diamine]: the pIC50 in assay [1] was above 7.00; in assay [2], 6.00 to 6.30.

As to `Cc1c(N2CCc3cnc(Nc4ccc(CS(C)(=O)=O)cc4)nc3C2)cnc2c1NCCC2=O` [Example 142, 7-(2-{[4-(methanesulfonylmethyl)phenyl]amino}-5H,6H,7H,8H-pyrido[3,4-d]pyrimidin-7-yl)-8-methyl-1,2,3,4-tetrahydro-1,5-naphthyridin-4-one], the negative logarithm of the IC50 (pIC50) in assay [1] was above 7.00; in assay [2] it was below 6.00.

Turning to `Cc1c(N2CCc3cnc(Nc4ccc(CC(=O)N5CC6(COC6)C5)cc4)nc3C2)cnc2c1NCCO2` [Example 164, 2-{4-[(7-{8-methyl-1H,2H,3H-pyrido[2,3-b][1,4]oxazin-7-yl}-5H,6H,7H,8H-pyrido[3,4-d]pyrimidin-2-yl)amino]phenyl}-1-{2-oxa-6-azaspiro[3.3]heptan-6-yl}ethan-1-one], the figures for the negative logarithm of the IC50 (pIC50) in assay [1] and in assay [2] were above 7.00 and above 6.30, respectively.

With `CC(=O)Nc1ccc(Nc2ncc3c(n2)CN(c2cnc4c(c2C)NCCO4)CC3)cn1` [Example 73, N-(5-((7-(8-methyl-2,3-dihydro-1H-pyrido[2,3-b][1,4]oxazin-7-yl)-5,6,7,8-tetrahydropyrido[3,4-d]pyrimidin-2-yl)amino)pyridin-2-yl)acetamide], the negative logarithm of the IC50 (pIC50) is above 7.00 in assay [1] and 6.00 to 6.30 in assay [2].

Take `Cc1c(N2CCc3cnc(Nc4cccc(CN5CCN(C)CC5)c4)nc3C2)cnc2c1NCCO2` [Example 66, 7-{8-methyl-1H,2H,3H-pyrido[2,3-b][1,4]oxazin-7-yl}-N-{3-[(4-methylpiperazin-1-yl)methyl]phenyl}-5H,6H,7H,8H-pyrido[3,4-d]pyrimidin-2-amine]: the negative-log IC50 (pIC50) in assay [1] is above 7.00; in assay [2], 6.00 to 6.30.

For `Cc1cc(Nc2ncc3c(n2)CN(c2cnc4c(c2C)NCCO4)CC3)ccc1C(=O)NC1CN(C)C1` [Example 35, 2-methyl-4-[(7-{8-methyl-1H,2H,3H-pyrido[2,3-b][1,4]oxazin-7-yl}-5H,6H,7H,8H-pyrido[3,4-d]pyrimidin-2-yl)amino]-N-(1-methylazetidin-3-yl)benzamide], the pIC50 in assay [1] is above 7.00; in assay [2] it was 6.00 to 6.30.

Take `Cc1c(N2CCc3cnc(Nc4ccc(NC(=O)CN5CCOCC5)cc4)nc3C2)cnc2c1NCCO2` [Example 12, N-{4-[(7-{8-methyl-1H,2H,3H-pyrido[2,3-b][1,4]oxazin-7-yl}-5H,6H,7H,8H-pyrido[3,4-d]pyrimidin-2-yl)amino]phenyl}-2-(morpholin-4-yl)acetamide]: the values for the pIC50 in assay [1] and in assay [2] were above 7.00 and above 6.30, respectively.

For the compound `Cc1cc(Nc2cc3c(cn2)CCN(c2cnc4c(c2C)NCCO4)C3)ccc1NCCN(C)C` [Example 14, N1-[2-(dimethylamino)ethyl]-2-methyl-N4-(6-{8-methyl-1H,2H,3H-pyrido[2,3-b][1,4]oxazin-7-yl}-5,6,7,8-tetrahydro-2,6-naphthyridin-3-yl)benzene-1,4-diamine], the pIC50 is above 7.00 in assay [1] and above 6.30 in assay [2].

Regarding `Cc1c(N2CCc3cnc(Nc4ccc(Cn5ccnc5)cc4)nc3C2)cnc2c1NCCO2` [Example 127, N-{4-[(1H-imidazol-1-yl)methyl]phenyl}-7-{8-methyl-1H,2H,3H-pyrido[2,3-b][1,4]oxazin-7-yl}-5H,6H,7H,8H-pyrido[3,4-d]pyrimidin-2-amine], the values for the negative logarithm of the IC50 (pIC50) in assay [1] and in assay [2] were above 7.00 and above 6.30, respectively.

With `Cc1c(N2CCc3cnc(Nc4ccc(Cn5cccn5)cc4)nc3C2)cnc2c1NCCO2` [Example 187, 7-{8-methyl-1H,2H,3H-pyrido[2,3-b][1,4]oxazin-7-yl}-N-{4-[(1H-pyrazol-1-yl)methyl]phenyl}-5H,6H,7H,8H-pyrido[3,4-d]pyrimidin-2-amine], the negative-log IC50 (pIC50) was above 7.00 in assay [1] and above 6.30 in assay [2].

As for `COCCN1CCc2cc(Nc3cc4c(cn3)CCN(c3cnc5c(c3C)NCCO5)C4)nn2CC1=O` [Example 153, 6-(2-methoxyethyl)-2-[(6-{8-methyl-1H,2H,3H-pyrido[2,3-b][1,4]oxazin-7-yl}-5,6,7,8-tetrahydro-2,6-naphthyridin-3-yl)amino]-4H,5H,6H,7H,8H-pyrazolo[1,5-d][1,4]diazepin-7-one], the pIC50 in assay [1] was above 7.00; in assay [2], above 6.30.

`Cc1c(N2CCc3cnc(Nc4ccc(CS(C)(=O)=O)cc4)nc3C2)cnc2c1NCC1(CC1)O2` [Example 139, N-[4-(methanesulfonylmethyl)phenyl]-7-{8′-methyl-1′,2′-dihydrospiro[cyclopropane-1,3′-pyrido[2,3-b][1,4]oxazin]-7′-yl}-5H,6H,7H,8H-pyrido[3,4-d]pyrimidin-2-amine]: the pIC50 was above 7.00 in assay [1] and above 6.30 in assay [2].

As to `Cc1c(N2CCc3cnc(Nc4ccc(OC[C@@H]5COCCO5)cc4)nc3C2)cnc2c1NCCO2` [Example 90, (S)—N-(4-((1,4-dioxan-2-yl)methoxy)phenyl)-7-(8-methyl-2,3-dihydro-1H-pyrido[2,3-b][1,4]oxazin-7-yl)-5,6,7,8-tetrahydropyrido[3,4-d]pyrimidin-2-amine], the pIC50 in assay [1] is above 7.00; in assay [2], 6.00 to 6.30.

Take `Cc1cc(Nc2cc3c(cn2)CCN(c2cnc4c(c2C)NCCO4)C3)ccc1NC(=O)CN1CCC1` [Example 9, 2-(azetidin-1-yl)-N-{2-methyl-4-[(6-{8-methyl-1H,2H,3H-pyrido[2,3-b][1,4]oxazin-7-yl}-5,6,7,8-tetrahydro-2,6-naphthyridin-3-yl)amino]phenyl}acetamide]: the negative-log IC50 (pIC50) in assay [1] is above 7.00; in assay [2] it was above 6.30.

`Cc1c(N2CCc3cnc(Nc4ccc(NCCN5CCOCC5)c(F)c4)cc3C2)cnc2c1NCCO2` [Example 4, 2-fluoro-N4-(6-{8-methyl-1H,2H,3H-pyrido[2,3-b][1,4]oxazin-7-yl}-5,6,7,8-tetrahydro-2,6-naphthyridin-3-yl)-N1-[2-(morpholin-4-yl)ethyl]benzene-1,4-diamine]: the negative logarithm of the IC50 (pIC50) in assay [1] was above 7.00; in assay [2], above 6.30.

Take `Cc1c(N2CCc3cnc(Nc4ccnc(N5CCOCC5)c4)nc3C2)cnc2c1NCCO2` [Example 77, 7-(8-methyl-2,3-dihydro-1H-pyrido[2,3-b][1,4]oxazin-7-yl)-N-(2-morpholinopyridin-4-yl)-5,6,7,8-tetrahydropyrido[3,4-d]pyrimidin-2-amine]: the pIC50 in assay [1] is above 7.00; in assay [2], above 6.30.

`Cc1c(N2CCc3cnc(Nc4cnc5c(c4)CN(CC(F)(F)F)CC5)nc3C2)cnc2c1NCCO2` [Example 106, 7-(8-methyl-2,3-dihydro-1H-pyrido[2,3-b][1,4]oxazin-7-yl)-N-(6-(2,2,2-trifluoroethyl)-5,6,7,8-tetrahydro-1,6-naphthyridin-3-yl)-5,6,7,8-tetrahydropyrido[3,4-d]pyrimidin-2-amine]: the pIC50 in assay [1] was above 7.00; in assay [2], below 6.00.

For `Cc1cc(Nc2cc3c(cn2)CCN(c2cnc4c(c2C)NCCO4)C3)ccc1NC(=O)CN1CCOCC1` [Example 34, N-{2-methyl-4-[(6-{8-methyl-1H,2H,3H-pyrido[2,3-b][1,4]oxazin-7-yl}-5,6,7,8-tetrahydro-2,6-naphthyridin-3-yl)amino]phenyl}-2-(morpholin-4-yl)acetamide], the negative-log IC50 (pIC50) is above 7.00 in assay [1] and above 6.30 in assay [2].

Regarding `Cc1c(N2CCc3cnc(Nc4ccc(CS(=O)(=O)C5CC5)nc4)nc3C2)cnc2c1NCCO2` [Example 40, 6-[(cyclopropanesulfonyl)methyl]-N-(7-{8-methyl-1H,2H,3H-pyrido[2,3-b][1,4]oxazin-7-yl}-5H,6H,7H,8H-pyrido[3,4-d]pyrimidin-2-yl) pyridin-3-amine], the pIC50 in assay [1] is above 7.00; in assay [2] it was above 6.30.
